In US6525000B1, “Method for producing anellated triazoles and new anellated triazoles and their use” (BASF Aktiengesellschaft, priority 1998, dated 2003):

Tests used:
Experiment in all cases: greenhouse post-emergence herbicidal test
Type in all cases: in vivo
Veronica spp. = settings: VERSS, 100 = complete destruction, 0 = no damage
Text: (§1) The seeds of the test plants were sown separately for each species. For the post-emergence treatment, the test plants were first grown to a plant height of from 3 to 15 cm, depending on plant habit, and only then treated with the active ingredients which had been suspended or emulsified in water. For this purpose, the test plants were either sown directly and grown in the same containers, or they were first grown separately as seedlings and transplanted into the test containers a few days prior to treatment. The rate of application for the post-emergence treatment was 0.0313 or 0.0156 kg of a.s./ha. Dependingon the species, the plants were kept at from 10-25° C. or 20-35° C. The test period extended over 2 to 4 weeks. During this time, the plants were tended, and their response to the individual treatments was evaluated. Evaluation was carried out using a scale from 0 to 100. 100 means no emergence of the plants, or complete destruction of at least the ariel plants, and 0 means no damage or normal course of growth. The plants used in the experiments belonged to the following species: [table]

Polygonum persicaria = settings: POLPE, 100 = complete destruction, 0 = no damage
Text: as §1

Solanum nigrum = settings: SOLNI, 100 = complete destruction, 0 = no damage
Text: as §1

Galium aparine = settings: GALAP, 100 = complete destruction, 0 = no damage
Text: as §1

Chenopodium album = settings: CHEAL, 100 = complete destruction, 0 = no damage
Text: as §1

Abutilon theoprasti = settings: ABUTH, 100 = complete destruction, 0 = no damage
Text: as §1

CON=Cc1cc(N2C(=O)C3COCNN3C2=O)c(F)cc1Cl (stereo not drawn) [Ex. 1d, 8-(4′-chloro-2′-fluoro-5′-methoxyiminomethylphenyl)-4-oxa-7,9-dioxo-1,2,8-triaza[4.3.0.]nonane]
herbicidal activity, evaluation on a scale from 0 to 100 (Veronica spp.; 0.0156 kg of a.s./ha): 100 | herbicidal activity, evaluation on a scale from 0 to 100 (Veronica spp.; 0.0313 kg of a.s./ha): 100 | herbicidal activity, evaluation on a scale from 0 to 100 (Polygonum persicaria; 0.0156 kg of a.s./ha): 98 | herbicidal activity, evaluation on a scale from 0 to 100 (Polygonum persicaria; 0.0313 kg of a.s./ha): 98 | herbicidal activity, evaluation on a scale from 0 to 100 (Solanum nigrum; 0.0156 kg of a.s./ha): 100 | herbicidal activity, evaluation on a scale from 0 to 100 (Solanum nigrum; 0.0313 kg of a.s./ha): 100 | herbicidal activity, evaluation on a scale from 0 to 100 (Galium aparine; 0.0156 kg of a.s./ha): 98 | herbicidal activity, evaluation on a scale from 0 to 100 (Galium aparine; 0.0313 kg of a.s./ha): 98 | herbicidal activity, evaluation on a scale from 0 to 100 (Chenopodium album; 0.0156 kg of a.s./ha): 98 | herbicidal activity, evaluation on a scale from 0 to 100 (Chenopodium album; 0.0313 kg of a.s./ha): 98 | herbicidal activity, evaluation on a scale from 0 to 100 (Abutilon theoprasti; 0.0156 kg of a.s./ha): 100 | herbicidal activity, evaluation on a scale from 0 to 100 (Abutilon theoprasti; 0.0313 kg of a.s./ha): 100
